According to patent US20100028889A1, “COMPANION DIAGNOSTIC ASSAYS FOR CANCER THERAPY” (ABBOTT LABORATORIES, priority 2006, published 2010):
Where two headings read alike, the source gives them in different places.

Legend:
[1] = system: Rs11380; assay: cell cytotoxicity EC50, CellTiter Glo, leukemia/lymphoma cell line; format: cell-based, human
Procedure: (§1) The SCLC and leukemia/lymphoma cell lines listed below were obtained from the American Type Culture Collection (Manassas, Va.), Deutsche Sammlung von Mikroorganismen und Zellkulturen (DSMZ, Braunsweig, Germany), or were the generous gift from Dr. Louis Staudt (National Cancer Institute) and were cultured as described in Tse, C., Shoemaker, A. R., Adickes, J., et al., “ABT-263: a potent and orally bioavailable Bcl-2 family inhibitor,” Cancer Res 2008; 68: 3421-3428; and Tahir, S. K., Yang, X., Anderson, M. G., et al., “Influence of Bcl-2 family members on the cellular response of small-cell lung cancer cell lines to ABT-737,” Cancer Res 2007; 67: 1176-1183.
(§2) Cells were treated at 10,000 or 50,000 cells per well for adherent or suspension cells, respectively, in 96-well microtiter plates in the presence of 10% human serum for 48 hours with or without ABT-263, in a humidified chamber with 5% CO2. ABT-263 was synthesized as previously described in Tse, C., Shoemaker, A. R., Adickes, J., et al., “ABT-263: a potent and orally bioavailable Bcl-2 family inhibitor,” Cancer Res 2008; 68: 3421-3428; and Oltersdorf, T., Elmore, S. W., Shoemaker, A. R., et al., “An inhibitor of Bcl-2 family proteins induces regression of solid tumours,” Nature 2005; 435: 677-681, and cell cytotoxicity EC50 values were assessed using CellTiter Glo (Promega, Madison Wis.).

[2] = system: I9.2; assay: as above; format: cell-based, human
Procedure: as §1, §2

[3] = system: Jurkat; assay: as above; format: cell-based, human
Procedure: as §1, §2

[4] = system: KG1a; assay: as above; format: cell-based, human; details: KG-1a
Procedure: as §1, §2

[5] = system: U-937; assay: as above; format: cell-based, human
Procedure: as §1, §2

[6] = system: Reh; assay: as above; format: cell-based, human
Procedure: as §1, §2

[7] = system: RS4; 11; assay: as above; format: cell-based, human
Procedure: as §1, §2

[8] = system: WSU-NHL; assay: as above; format: cell-based, human
Procedure: as §1, §2

[9] = system: MEG-01; assay: as above; format: cell-based, human
Procedure: as §1, §2

[10] = system: Pfeiffer; assay: as above; format: cell-based, human
Procedure: as §1, §2

[11] = system: RPMI 8226; assay: as above; format: cell-based, human
Procedure: as §1, §2

[12] = system: HL60; assay: as above; format: cell-based, human
Procedure: as §1, §2

[13] = system: Raji; assay: as above; format: cell-based, human
Procedure: as §1, §2

[14] = system: CCRF-HSB2; assay: as above; format: cell-based, human
Procedure: as §1, §2

[15] = system: K562; assay: as above; format: cell-based, human
Procedure: as §1, §2

[16] = system: SuPB15; assay: as above; format: cell-based, human
Procedure: as §1, §2

[17] = system: CEM/C1; assay: as above; format: cell-based, human
Procedure: as §1, §2

[18] = system: MOLT-4; assay: as above; format: cell-based, human
Procedure: as §1, §2

[19] = system: SuDHL-4; assay: as above; format: cell-based, human
Procedure: as §1, §2

[20] = system: MV-4-11; assay: as above; format: cell-based, human
Procedure: as §1, §2

[21] = system: SHP-77; assay: cell cytotoxicity EC50, CellTiter Glo, SCLC cell line; format: cell-based, human
Procedure: as §1, §2

[22] = system: NCI-H1105; assay: as above; format: cell-based, human
Procedure: as §1, §2

[23] = system: NCI-H1688; assay: as above; format: cell-based, human
Procedure: as §1, §2

[24] = system: DMS 114; assay: as above; format: cell-based, human
Procedure: as §1, §2

[25] = system: NCI-H1618; assay: as above; format: cell-based, human
Procedure: as §1, §2

[26] = system: NCI-H740; assay: as above; format: cell-based, human
Procedure: as §1, §2

[27] = system: solid tumors; details: in vivo; cited from earlier work
[28] = system: diverse panel of human cancer cell lines; details: cited from earlier work
[29] = 10% human serum, 48 hours, read-out: EC50
[30] = Homo sapiens, read-out: Response Designation

Which results are given for `CC1(C)CCC(c2ccc(Cl)cc2)=C(CN2CCN(c3ccc(C(=O)NS(=O)(=O)c4ccc(N[C@H](CCN5CCOCC5)CSc5ccccc5)c(S(=O)(=O)C(F)(F)F)c4)cc3)CC2)C1` [ABT-263, N-(4-(4-((2-(4-chlorophenyl)-5,5-dimethyl-1-cyclohex-1-en-1-yl)methyl)piperazin-1-yl)benzoyl)-4-(((1R)-3-(morpholin-4-yl)-1-((phenylsulfanyl)methyl)propyl)amino)-3-((trifluoromethyl)sulfonyl)benzenesulfonamide]?
EC50 [1, 29]: 0.145 µM; EC50 [1, 30]: ≤ 4.8 µM; EC50 [2, 29]: 1.8 µM; EC50 [2, 30]: ≤ 4.8 µM; EC50 [3, 29]: 3.35 µM; EC50 [3, 30]: ≤ 4.8 µM; EC50 [4, 30]: ≤ 4.8 µM; EC50 [4, 29]: 0.243 µM; EC50 [5, 29]: 33.9 µM; EC50 [5, 30]: > 4.8 µM; EC50 [6, 29]: 0.434 µM; EC50 [6, 30]: ≤ 4.8 µM; EC50 ([7]; Homo sapiens, RS4;11, read-out: Response Designation): ≤ 4.8 µM; EC50 ([7]; RS4, 11, 10% human serum, 48 hours, read-out: EC50): 0.095 µM; EC50 [8, 29]: 3.55 µM; EC50 [8, 30]: ≤ 4.8 µM; EC50 ([9]; Homo sapiens, MEG-01, read-out: Response Designation): > 4.8 µM; EC50 ([9]; Meg-01, 10% human serum, 48 hours, read-out: EC50): 6.04 µM; EC50 [10, 29]: 8.81 µM; EC50 [10, 30]: > 4.8 µM; EC50 [11, 29]: 1.5 µM; EC50 [11, 30]: ≤ 4.8 µM; EC50 ([12]; HL-60, 10% human serum, 48 hours, read-out: EC50): 4.84 µM; EC50 ([12]; Homo sapiens, HL-60, read-out: Response Designation): ≤ 4.8 µM; EC50 [13, 29]: 23.7 µM; EC50 [13, 30]: > 4.8 µM; EC50 ([14]; CCRF-HSB-2, 10% human serum, 48 hours, read-out: EC50): 1.15 µM; EC50 ([14]; Homo sapiens, CCRF-HSB-2, read-out: Response Designation): ≤ 4.8 µM; EC50 [15, 29]: 12.8 µM; EC50 [15, 30]: > 4.8 µM; EC50 ([16]; Homo sapiens, SUP-B15, read-out: Response Designation): ≤ 4.8 µM; EC50 ([16]; SUP-B15, 10% human serum, 48 hours, read-out: EC50): 0.26 µM; EC50 [17, 29]: 0.063 µM; EC50 [17, 30]: ≤ 4.8 µM; EC50 ([18]; Homo sapiens, MOLT-4, read-out: Response Designation): ≤ 4.8 µM; EC50 ([18]; Molt-4, 10% human serum, 48 hours, read-out: EC50): 0.385 µM; EC50 ([19]; Homo sapiens, SU-DHL-4, read-out: Response Designation): ≤ 4.8 µM; EC50 ([19]; SU-DHL-4, 10% human serum, 48 hours, read-out: EC50): 1.04 µM; EC50 ([20]; Homo sapiens, MV4-11, read-out: Response Designation): ≤ 4.8 µM; EC50 ([20]; MV4-11, 10% human serum, 48 hours, read-out: EC50): 0.028 µM; EC50 ([21]; Homo sapiens, SHP77, read-out: Response Designation): ≤ 4.1 µM; EC50 ([21]; SHP77, 10% human serum, 48 hours, read-out: EC50): 3.9 µM; EC50 [22, 29]: 0.7 µM; EC50 [22, 30]: ≤ 4.1 µM; EC50 [23, 29]: 8.07 µM; EC50 [23, 30]: > 4.1 µM; EC50 [24, 29]: 33.9 µM; EC50 [24, 30]: > 4.1 µM; EC50 [25, 29]: 1.4 µM; EC50 [25, 30]: ≤ 4.1 µM; EC50 [26, 29]: > 10 µM; EC50 [26, 30]: > 4.1 µM

For `CN(C)CC[C@H](CSc1ccccc1)Nc1ccc(S(=O)(=O)NC(=O)c2ccc(N3CCN(Cc4ccccc4-c4ccc(Cl)cc4)CC3)cc2)cc1[N+](=O)[O-]` [ABT-737, N-(4-(4-((4′-chloro(1,1′-biphenyl)-2-yl)methyl)piperazin-1-yl)benzoyl)-4-(((1R)-3-(dimethylamino)-1-((phenylsulfanyl)methyl)propyl)amino)-3-nitrobenzenesulfonamide], which “effect on solid tumors” value [27] is on record?
The value was “induce regression of solid tumors”.

And the “potency across a diverse panel of human cancer cell lines” value [28]?
The value was “selective potency against SCLC and lymphoma cell lines”.
